Experimental data reported in patent US20230143612A1 (Arbutus Biopharma Corporation, priority 2020, published 2023).

Biological target: PD-L1 His protein / PD-1 Fc protein (Homo sapiens, UniProt Q9NZQ7)
Experiment: HTRF Assay (PD-1/PD-L1 interaction)
Type: binding
Conditions: PD-L1 His 6 nM, PD-1 Fc 6 nM
Description: PD-L1 His protein was prepared and added at the final concentration of 6 nM in the White opaque 384 well plate (Corning cat #3824BC). PD-L1 small molecule inhibitors were diluted by 3-fold starting from 20 μM and a final concentration of 0.001 μM and added to the well. PD-1 Fc protein was added at the final concentration of 6 nM. PD-L1 His protein, PD-L1 small molecule inhibitors, and PD1 Fc proteins were added to the well in this order, with each 5 μl volume, and were incubated for 15 minutes at room temperature. PAb anti-Human IgG-XL665 (Cisbio, cat #61HFCXLA) and Mab anti-6HIS Tb cryptate Gold (Cisbio, cat #61HI2TLA) were mixed at 6.7 nM and 0.35 nM respectively, and total 5 μl volume of mixture was added to the well and incubated at room temperature for 1 hour. The plate was read using PerkinElmer Envision plate reader and data was analyzed by Prism 6 software.

PD-L1 His protein / PD-1 Fc protein, sequence (Q9NZQ7 19-238 limits assumed): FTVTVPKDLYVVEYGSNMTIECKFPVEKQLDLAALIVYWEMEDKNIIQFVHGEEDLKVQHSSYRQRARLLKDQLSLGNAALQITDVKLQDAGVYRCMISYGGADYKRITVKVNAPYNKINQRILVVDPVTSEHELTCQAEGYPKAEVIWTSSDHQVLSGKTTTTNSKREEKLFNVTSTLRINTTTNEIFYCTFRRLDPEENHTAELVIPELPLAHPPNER

**Q.** For `Cc1c(-c2ccn3c(=O)c(CNC[C@@H]4CCC(=O)N4)cnc3c2)cccc1-c1cccc(-c2ccc3c(n2)N(C)CCC3NC[C@@H]2CCC(=O)N2)c1Cl` (mixture of isomers) [Example 68, 8-(2′-Chloro-2-methyl-3′-(8-methyl-5-((((S)-5-oxopyrrolidin-2-yl)methyl)amino)-5,6,7,8-tetrahydro-1,8-naphthyridin-2-yl)-[1,1′-biphenyl]-3-yl)-3-(((((S)-5-oxopyrrolidin-2-yl)methyl)amino)methyl)-4H-pyrido[1,2-a]pyrimidin-4-one], which IC50 is on record?
**A.** Its IC50 is 11 nM.

**Q.** For `COc1nc(-c2cccc(-c3cccc(-c4ccc5c(n4)N(C)CCC5NCc4cncc(F)c4)c3Cl)c2Cl)ccc1CNC[C@@H]1CCC(=O)N1` (mixture of isomers) [Example 91, (5S)-5-((((6-(2,2′-Dichloro-3′-(5-(((5-fluoropyridin-3-yl)methyl)amino)-8-methyl-5,6,7,8-tetrahydro-1,8-naphthyridin-2-yl)-[1,1′-biphenyl]-3-yl)-2-methoxypyridin-3-yl)methyl)amino)methyl)pyrrolidin-2-one], which IC50 is on record?
**A.** Its IC50 is 180 nM.

**Q.** `COc1nc(-c2cccc(-c3cccc(-c4ccn5c(=O)c(CNC[C@H]6C[C@H]6CO)cnc5c4)c3Cl)c2Cl)ccc1CNC[C@@H]1CCC(=O)N1` (racemic) [Example 225, 8-(2,2′-dichloro-3′-(6-methoxy-5-(((((S)-5-oxopyrrolidin-2-yl)methyl)-amino)-methyl)-pyridin-2-yl)-[1,1′-biphenyl]-3-yl)-3-(((((1S,2R)-2-(hydroxymethyl)-cyclopropyl)methyl)amino)methyl)-4H-pyrido[1,2-a]pyrimidin-4-one] was tested. Which IC50 did it give?
**A.** The IC50 was 0.2 nM.

**Q.** With `COc1nc(-c2cccc(-c3cccc(-c4ccc5c(n4)CCCC5NC[C@@H]4CCC(=O)N4)c3Cl)c2Cl)ccc1CNC[C@@H]1CCC(=O)N1` (mixture of isomers) [Example 235, (5S)-5-((((6-(2,2′-Dichloro-3′-(5-((((S)-5-oxopyrrolidin-2-yl)methyl)amino)-5,6,7,8-tetrahydroquinolin-2-yl)-[1,1′-biphenyl]-3-yl)-2-methoxypyridin-3-yl)methyl)amino)methyl)pyrrolidin-2-one] as the molecule, how does the IC50 read?
**A.** Its IC50 is 1 nM.

**Q.** `COc1nc(-c2cccc(-c3cccc(-c4ccn5c(=O)c(CNC[C@@H]6C[C@H]6CO)cnc5c4)c3Cl)c2Cl)ccc1CNC[C@@H]1CCC(=O)N1` (racemic) [Example 245, 8-(2,2′-dichloro-3′-(6-methoxy-5-(((((S)-5-oxopyrrolidin-2-yl)-methyl)amino)-methyl)-pyridin-2-yl)-[1,1′-biphenyl]-3-yl)-3-(((((1R,2R)-2-(hydroxymethyl)-cyclopropyl)methyl)amino)-methyl)-4H-pyrido[1,2-a]pyrimidin-4-one] was tested. Which IC50 did it give?
**A.** Its IC50 is 2.1 nM.

**Q.** Which IC50 does the source give for `COc1nc(-c2cccc(-c3cccc(-c4ccc5c(n4)CCCC5NC[C@H](C)O)c3Cl)c2Cl)ccc1CNC[C@@H]1CCC(=O)N1` (mixture of isomers) [Example 390, (5S)-5-((((6-(2,2′-Dichloro-3′-(5-(((S)-2-hydroxypropyl)amino)-5,6,7,8-tetrahydroquinolin-2-yl)-[1,1′-biphenyl]-3-yl)-2-methoxypyridin-3-yl)methyl)amino)methyl)pyrrolidin-2-one] here?
**A.** Its IC50 is 6.5 nM.

**Q.** How did the IC50 turn out when `COc1nc(-c2cccc(-c3cccc(-c4cc5c(=O)n(C)c(CNCC6CC(F)(F)C(=O)N6)nn5c4)c3Cl)c2Cl)ccc1CNC[C@@H]1CCC(=O)N1` (mixture of isomers) [Example 450, 6-[2-Chloro-3-[2-chloro-3-[6-methoxy-5-[[[rac-(2S)-5-oxopyrrolidin-2-yl]methylamino]methyl]-2-pyridyl]phenyl]phenyl]-2-[[(4,4-difluoro-5-oxo-pyrrolidin-2-yl)methylamino]methyl]-3-methyl-pyrrolo[2,1-f][1,2,4]triazin-4-one] was run?
**A.** The IC50 was 12 nM.

**Q.** Which IC50 does the source give for `COc1nc(-c2cccc(-c3cccc(-c4ccc5c(n4)N(C)CCC5NC[C@@H]4CCC(=O)N4)c3Cl)c2Cl)ccc1CNC[C@@H]1CCC(=O)N1` (single isomer, unassigned) [Example 52] here?
**A.** The IC50 was 0.8 nM.

**Q.** `COc1nc(-c2cccc(-c3cccc(-c4ccc5c(n4)N(C)CCC5NC[C@@H]4CCC(=O)N4)c3Cl)c2Cl)ccc1CNC[C@@H]1CCC(=O)N1` (single isomer, unassigned) [Example 53] was tested. Which IC50 did it give?
**A.** The IC50 was 1.7 nM.

**Q.** How did the IC50 turn out when `COc1nc(-c2cccc(-c3cccc(-c4ccn5c(=O)c(CNC6CC7(CCNC7=O)C6)cnc5c4)c3Cl)c2Cl)ccc1CNC[C@@H]1CCC(=O)N1` (single isomer, unassigned) [Example 249] was run?
**A.** Its IC50 is 0.6 nM.

**Q.** How did the IC50 turn out when `COc1nc(-c2cccc(-c3cccc(-c4ccn5c(=O)c(CNC6CC7(CCNC7=O)C6)cnc5c4)c3Cl)c2Cl)ccc1CNC[C@@H]1CCC(=O)N1` (single isomer, unassigned) [Example 250] was run?
**A.** Its IC50 is 1 nM.

**Q.** `COc1nc(-c2cccc(-c3cccc(-c4ccn5c(=O)c(CNC6CC7(CCNC7=O)C6)cnc5c4)c3Cl)c2Cl)ccc1CNC[C@@H]1CCC(=O)N1` (single isomer, unassigned) [Example 251] was tested. Which IC50 did it give?
**A.** Its IC50 is 8.9 nM.

**Q.** Which IC50 does the source give for `Cc1c(COc2cc(OCc3cncc(C(N)=O)c3)c(CNCCO)cc2Cl)cccc1-c1cccc(-c2ccn3c(=O)c(CNCCO)cnc3c2)c1` [Example 1, 5-((4-Chloro-2-(((2-hydroxyethyl)amino)methyl)-5-((3′-(3-(((2-hydroxyethyl)amino)methyl)-4-oxo-4H-pyrido[1,2-a]pyrimidin-8-yl)-2-methyl-[1,1′-biphenyl]-3-yl)methoxy)phenoxy)methyl)nicotinamide] here?
**A.** Its IC50 is 2.8 nM.

**Q.** How did the IC50 turn out when `Cc1c(NC(=O)c2ccc(CNCCO)cn2)cccc1-c1cccc(-c2ccn3c(=O)c(CNCCO)cnc3c2)c1` [Example 2, 5-(((2-Hydroxyethyl)amino)methyl)-N-(3′-(3-(((2-hydroxyethyl)amino)methyl)-4-oxo-4H-pyrido[1,2-a]pyrimidin-8-yl)-2-methyl-[1,1′-biphenyl]-3-yl)picolinamide] was run?
**A.** Its IC50 is 79 nM.

**Q.** How did the IC50 turn out when `Cc1c(COc2cc(OCc3cncc(C#N)c3)c(CNCCO)cc2Cl)cccc1-c1cccc(-c2ccn3c(=O)c(CNCCO)cnc3c2)c1C` [Example 3, 5-((4-Chloro-2-(((2-hydroxyethyl)amino)methyl)-5-((3′-(3-(((2-hydroxyethyl)amino)methyl)-4-oxo-4H-pyrido[1,2-a]pyrimidin-8-yl)-2,2′-dimethyl-[1,1′-biphenyl]-3-yl)methoxy)phenoxy)methyl)nicotinonitrile] was run?
**A.** The IC50 was 1.2 nM.

**Q.** With `Cc1c(COc2cc(OCc3cncc(C#N)c3)c(CNCCO)cc2Cl)cccc1-c1cccc(-c2ccn3c(=O)c(CNCCO)cnc3c2)c1` [Example 4, 5-((4-Chloro-2-(((2-hydroxyethyl)amino)methyl)-5-((3′-(3-(((2-hydroxyethyl)amino)methyl)-4-oxo-4H-pyrido[1,2-a]pyrimidin-8-yl)-2-methyl-[1,1′-biphenyl]-3-yl)methoxy)phenoxy)methyl)nicotinonitrile] as the molecule, how does the IC50 read?
**A.** The IC50 was 2 nM.

**Q.** Which IC50 does the source give for `Cc1c(COc2cc(OCc3cncc(C#N)c3)c(CNCCO)cc2Cl)cccc1-c1cccc(-n2cnc3cc(CNCCO)ccc3c2=O)c1` [Example 5, 5-((4-Chloro-2-(((2-hydroxyethyl)amino)methyl)-5-((3′-(7-(((2-hydroxyethyl)amino)methyl)-4-oxoquinazolin-3(4H)-yl)-2-methyl-[1,1′-biphenyl]-3-yl)methoxy)phenoxy)methyl)nicotinonitrile] here?
**A.** Its IC50 is 150 nM.

**Q.** For `Cc1c(COc2cc(OCc3cncc(C#N)c3)c(CNCCO)cc2Cl)cccc1-c1cccc(-n2cnc3cc(CNCCO)ccc3c2=O)c1C` [Example 6, 5-((4-Chloro-2-(((2-hydroxyethyl)amino)methyl)-5-((3′-(7-(((2-hydroxyethyl)amino)methyl)-4-oxoquinazolin-3(4H)-yl)-2,2′-dimethyl-[1,1′-biphenyl]-3-yl)methoxy)phenoxy)methyl)nicotinonitrile], which IC50 is on record?
**A.** The IC50 was 44 nM.

**Q.** For `Cc1c(COc2cc(OCc3cncc(C#N)c3)c(CN[C@@](C)(CO)C(=O)O)cc2Cl)cccc1-c1cccc(-c2ccn3c(=O)c(CN[C@@](C)(CO)C(=O)O)cnc3c2)c1C` [Example 7, (S)-2-(((8-(3′-((4-((((S)-2-Carboxy-1-hydroxypropan-2-yl)amino)methyl)-2-chloro-5-((5-cyanopyridin-3-yl)methoxy)phenoxy)methyl)-2,2′-dimethyl-[1,1′-biphenyl]-3-yl)-4-oxo-4H-pyrido[1,2-a]pyrimidin-3-yl)methyl)amino)-3-hydroxy-2-methylpropanoic acid], which IC50 is on record?
**A.** The IC50 was 0.2 nM.

**Q.** Which IC50 does the source give for `Cc1c(COc2cc(OCc3cncc(C#N)c3)c(CNCCO)cc2Cl)cccc1-c1cccc(-c2ccc3c(c2)C(=O)N(C)CC(=O)N3CCNCCO)c1C` [Example 8, 5-((4-Chloro-5-((3′-(1-(2-((2-hydroxyethyl)amino)ethyl)-4-methyl-2,5-dioxo-2,3,4,5-tetrahydro-1H-benzo[e][1,4]diazepin-7-yl)-2,2′-dimethyl-[1,1′-biphenyl]-3-yl)methoxy)-2-(((2-hydroxyethyl)amino)methyl)phenoxy)methyl)nicotinonitrile] here?
**A.** The IC50 was 0.8 nM.

**Q.** Which IC50 does the source give for `Cc1c(COc2cc(OCc3cncc(C#N)c3)c(CNCCO)cc2Cl)cccc1-c1cccc(-c2ccn3c(=O)c(CNCCO)ccc3c2)c1C` [Example 9, 5-((4-Chloro-2-(((2-hydroxyethyl)amino)methyl)-5-((3′-(3-(((2-hydroxyethyl)amino)methyl)-4-oxo-4H-quinolizin-8-yl)-2,2′-dimethyl-[1,1′-biphenyl]-3-yl)methoxy)phenoxy)methyl)nicotinonitrile] here?
**A.** The IC50 was 1.1 nM.

**Q.** How did the IC50 turn out when `Cc1c(COc2cc(OCc3cncc(C#N)c3)c(CN3CCCC[C@H]3C(=O)O)cc2Cl)cccc1-c1cccc(-c2ccn3c(=O)c(CN4CCCC[C@H]4C(=O)O)cnc3c2)c1C` [Example 11, (S)-1-((8-(3′-((4-(((S)-2-Carboxypiperidin-1-yl)methyl)-2-chloro-5-((5-cyanopyridin-3-yl)methoxy)phenoxy)methyl)-2,2′-dimethyl-[1,1′-biphenyl]-3-yl)-4-oxo-4H-pyrido[1,2-a]pyrimidin-3-yl)methyl)piperidine-2-carboxylic acid] was run?
**A.** The IC50 was 0.6 nM.
